Paper PMC8881512 (Nature Communications, 2022)
Several values for one entry are separate records, joined by “and”; a condition that tells them apart may be missing. Equal values may be shown once.

What was measured:
LATS1 = target: T1, LATS1 (Homo sapiens, UniProt O95835); assay: In vitro LATS1 kinase inhibition assay (HTRF); assay type: biochemical; conditions: for IC50: 3000 μM ATP, n = 2; for LATS1 kinase activity: Fig.5b
T1 construct: purchased Signalchem
T1 sequence (O95835 1-1130): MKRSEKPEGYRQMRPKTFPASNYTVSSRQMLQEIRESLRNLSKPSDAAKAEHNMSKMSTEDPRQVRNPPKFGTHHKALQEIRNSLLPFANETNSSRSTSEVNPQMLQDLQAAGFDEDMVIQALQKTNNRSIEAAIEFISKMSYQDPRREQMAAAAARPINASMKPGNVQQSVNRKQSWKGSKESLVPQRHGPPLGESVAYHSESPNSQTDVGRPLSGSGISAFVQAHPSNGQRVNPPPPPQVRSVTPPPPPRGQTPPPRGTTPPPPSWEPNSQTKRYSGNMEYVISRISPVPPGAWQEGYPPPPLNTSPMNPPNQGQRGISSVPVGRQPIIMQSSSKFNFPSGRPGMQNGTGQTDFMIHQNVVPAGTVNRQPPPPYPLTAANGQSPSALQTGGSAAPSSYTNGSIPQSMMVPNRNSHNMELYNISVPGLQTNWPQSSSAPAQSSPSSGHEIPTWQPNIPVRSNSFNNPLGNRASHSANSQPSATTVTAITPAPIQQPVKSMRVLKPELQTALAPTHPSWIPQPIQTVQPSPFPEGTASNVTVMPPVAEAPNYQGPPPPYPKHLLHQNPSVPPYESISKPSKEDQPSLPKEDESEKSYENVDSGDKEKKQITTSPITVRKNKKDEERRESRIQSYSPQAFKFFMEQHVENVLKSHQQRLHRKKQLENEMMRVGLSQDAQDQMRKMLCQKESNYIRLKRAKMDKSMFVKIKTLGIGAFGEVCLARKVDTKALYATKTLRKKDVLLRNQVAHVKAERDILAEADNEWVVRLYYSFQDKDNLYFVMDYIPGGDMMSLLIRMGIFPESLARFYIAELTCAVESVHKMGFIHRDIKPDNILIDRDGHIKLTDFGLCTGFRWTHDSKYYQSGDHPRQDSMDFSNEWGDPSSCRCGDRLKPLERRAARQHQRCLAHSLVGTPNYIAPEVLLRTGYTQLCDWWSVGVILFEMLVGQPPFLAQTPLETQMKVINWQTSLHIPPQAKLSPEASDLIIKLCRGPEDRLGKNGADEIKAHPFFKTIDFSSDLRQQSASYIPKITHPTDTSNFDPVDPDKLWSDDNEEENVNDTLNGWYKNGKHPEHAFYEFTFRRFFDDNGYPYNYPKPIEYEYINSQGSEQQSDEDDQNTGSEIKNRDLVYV
Procedure: The kinase activity of LATS1 and LATS2 were performed based on an adapted and optimised HTRF Kinase Binding assay (Cisbio). Briefly, the concentration-response curves with compound concentration range of 10,000 to 0.17 nM with 3-fold serial dilution and 1X Kinase enzymatic buffer (Cisbio), 1.2 nM LATS1 or LATS2 kinases (Signalchem), 0.5 μM biotinylation labelled YAP peptide (Vivace) were dispensed into 384-well microplates by automated digital dispenser Echo/POD with the final DMSO concentration in all wells at 0.5%. To start the enzymatic reaction, 3000 μM ATP (for LATS1) or 6000 μM ATP (for LATS2) were added using multidrop in a 10-μl volume and incubated for 90 min at 30 °C. Subsequently, 10 μl of HTRF KinEASE detection buffer (Cisbio) containing 31.25 nM acceptor conjugate (streptavidin-XL665) and 1:100 donor conjugate (TK antibody labelled with Eu^3+-Cryptate) mixture were added and incubated at RT for 60 min, and the fluorescence emission at two different wavelengths was measured (615 nm and 665 nm) on Envision. […] The inhibition was calculated by the formula, inhibition % = (HIGH − ratio) × 100/ (High − LOW). HIGH control stands for 0.5% DMSO with kinase and LOW control stands for 0.5% DMSO without kinase. The data was analysed by Xlfit software. The IC50 values were determined by fitting to a standard four-parameter logistic using GraphPad Prism.

MCF-7 cells = assay: Colony-formation assay, MCF-7 (wild-type and ESR1 knock-in); assay type: cell-based, human; conditions: for Rel. colony (colony-formation assay): MCF-7, VT02956 (2 μM), VT02484 (2 μM) or Palbociclib (0.1 μM) alone or in combinations, Fig.6d; for Relative colony formation: 1 μM 4OHT, 0.2 μM Fulvestrant, 2 μM VT02956, 2 μM VT02484, Fig.6g
Procedure: […] The drugs were refreshed every 2–4 days. The colonies were then fixed with 4% paraformaldehyde for 15 min and stained with 0.1% crystal violet in 20% methanol solution for quantification.

[1] = system: YAP target, ESR1 and ERα target gene mRNA in T47D cells; assay: qPCR gene expression in T47D cells; assay type: cell-based, human; conditions: 2 µM for 2 days; for ANKRD1 mRNA (qPCR, relative to DMSO) / LATS2 mRNA (qPCR, relative to DMSO) / VGLL3 mRNA (qPCR, relative to DMSO): sheet Fig.s7c (Supplementary Fig. 7d); for ESR1 mRNA (qPCR, relative to DMSO) / GREB1 mRNA (qPCR, relative to DMSO) / TFF1 mRNA (qPCR, relative to DMSO): sheet Fig.s7e (Supplementary Fig. 7f)
Source text: PCR primer pairs included

[2] = system: ER+ breast tumour organoids (BTO-02); assay: 3D organoids drug response assay (CellTiter-Glo 3D); assay type: cell-based, human; conditions: 3D drug killing assay; 12 days after compound treatment; Fig. 6b
Procedure: Breast tumour organoids were dissociated into single cells using TrypLE Express and counted with automated cell counter. Subsequently, 1000 cells were mixed in 10 μl BME type 2, seeded onto 96-well plate in triplicate and overlaid with 100 μl BC organoid medium (BOM) after BME gelation. Three days after organoids sphere formation, medium was removed and replaced by 100 μl of complete medium containing VT02956 (0, 0.04, 0.2, 1, 5 μM) or vehicle (DMSO). The drug-containing medium was refreshed every 3 days for additional 3–4 times. At the end of the treatment, the effect of the drugs on the tumour organoids, in terms of the organoids cell growth, was assayed with CellTiter-Glo 3D (Promega) according to the manufacturer’s instructions and were normalised to vehicle controls (0.5% DMSO content). The IC50 values was calculated in GraphPad Prism 8.

JAK1 = target: T2, JAK1 (Homo sapiens, UniProt P23458); assay: Kinome profiling; assay type: biochemical; conditions: VT02956 (5 nM)
T2 construct: LATS1/LATS2 enzymes from Signalchem
T2 sequence (P23458 whole entry): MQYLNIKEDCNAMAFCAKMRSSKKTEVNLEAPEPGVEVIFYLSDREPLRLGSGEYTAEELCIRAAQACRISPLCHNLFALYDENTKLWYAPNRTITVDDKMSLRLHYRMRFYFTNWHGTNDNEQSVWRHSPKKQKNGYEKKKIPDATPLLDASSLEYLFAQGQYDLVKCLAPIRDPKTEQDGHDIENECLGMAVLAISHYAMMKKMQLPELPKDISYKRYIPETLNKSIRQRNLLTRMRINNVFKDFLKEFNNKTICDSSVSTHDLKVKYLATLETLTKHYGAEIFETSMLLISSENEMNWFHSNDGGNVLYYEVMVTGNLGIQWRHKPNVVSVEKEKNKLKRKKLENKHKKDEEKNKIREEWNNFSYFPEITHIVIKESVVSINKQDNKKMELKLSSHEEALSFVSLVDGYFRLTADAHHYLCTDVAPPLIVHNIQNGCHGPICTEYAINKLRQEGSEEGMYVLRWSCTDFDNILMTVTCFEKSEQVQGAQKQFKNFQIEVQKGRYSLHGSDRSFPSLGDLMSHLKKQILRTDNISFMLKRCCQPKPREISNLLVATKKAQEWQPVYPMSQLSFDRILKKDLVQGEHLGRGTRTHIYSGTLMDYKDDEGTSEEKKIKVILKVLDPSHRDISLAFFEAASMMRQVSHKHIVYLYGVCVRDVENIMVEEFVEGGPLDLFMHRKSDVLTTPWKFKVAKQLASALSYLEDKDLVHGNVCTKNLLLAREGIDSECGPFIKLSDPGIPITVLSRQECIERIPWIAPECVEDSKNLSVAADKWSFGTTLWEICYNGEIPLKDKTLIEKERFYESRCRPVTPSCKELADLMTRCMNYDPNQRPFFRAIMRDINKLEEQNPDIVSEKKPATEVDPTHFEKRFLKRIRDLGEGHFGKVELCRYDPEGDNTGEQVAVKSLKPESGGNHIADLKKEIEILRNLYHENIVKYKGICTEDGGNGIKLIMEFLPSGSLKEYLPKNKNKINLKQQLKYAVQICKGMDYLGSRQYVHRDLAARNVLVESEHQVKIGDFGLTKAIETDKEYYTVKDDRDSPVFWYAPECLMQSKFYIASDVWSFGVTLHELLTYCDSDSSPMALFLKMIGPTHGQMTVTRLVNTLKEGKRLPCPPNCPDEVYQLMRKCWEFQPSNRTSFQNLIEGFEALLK

Row | inhibition towards LATS (LATS1; in vitro, LATS1 and LATS2 (Fig. 5b, c)) | IC50 (LATS1; in vitro) [nM] | LATS1 kinase activity (LATS1; Conc. 0.00016935 (µM)) | LATS1 kinase activity (LATS1; Conc. 0.00050805 (µM)) | LATS1 kinase activity (LATS1; Conc. 0.00152416 (µM)) | LATS1 kinase activity (LATS1; Conc. 0.00457247 (µM)) | % enzymatic activity relative to DMSO controls (JAK1) [%] | Compound | Rel. colony (colony-formation assay) (MCF-7 cells) | Relative colony formation (MCF-7 cells; MCF-7 ERa D538G knock-in) | Relative colony formation (MCF-7 cells; MCF-7 ERa Y537S knock-in) | Relative colony formation (MCF-7 cells; MCF-7 WT) | ANKRD1 mRNA (qPCR, relative to DMSO) [1] | LATS2 mRNA (qPCR, relative to DMSO) [1] | VGLL3 mRNA (qPCR, relative to DMSO) [1] | ESR1 mRNA (qPCR, relative to DMSO) [1] | GREB1 mRNA (qPCR, relative to DMSO) [1] | TFF1 mRNA (qPCR, relative to DMSO) [1] | growth of ER+ breast tumour organoids (BTOs) [2]
1 | showed no inhibition towards LATS | > 10000 |  |  |  |  |  | CCN(CC)c1nc(-c2ccncc2)nc2c(-c3ccc(Cl)cc3)cccc12 [VT02484] | 0.94 and 1.05 and 1.08 | 1.12 and 1.04 and 1.03 | 0.96 and 0.91 and 1.03 | 0.96 and 0.89 and 1.02 | 0.9511 and 0.8877 and 0.7788 | 1.062 and 1.257 and 1.047 | 1.036 and 0.9545 and 1.103 | 1.074 and 0.8288 and 1.02 | 1.002 and 1.049 and 0.9359 | 1.09 and 1.077 and 1.0923 | 
2 |  | 0.76 | 83.5285 and 93.8174 | 56.9778 and 63.1654 | 31.2859 and 31.2259 | 3.14 and 1.742 | 82 | NCC1CCN(c2nc(-c3ccncc3)nc3c(C#CCO)cccc23)CC1 [VT02956] | 0.41 and 0.36 and 0.33 | 0.39 and 0.37 and 0.34 | 0.41 and 0.42 and 0.45 | 0.32 and 0.27 and 0.35 | 151.05 and 152.548 and 126.932 | 2.078 and 1.8081 and 2.057 | 25.7059 and 26.0713 and 24.6224 | 0.1433 and 0.1061 and 0.1464 | 0.2102 and 0.1984 and 0.2087 | 0.06716 and 0.07329 and 0.06992 | sensitive
